We go through 23 compounds from patent US10308637B2 (LifeSci Pharmaceuticals, Inc., priority 2015, dated 2019).

The nature of this assay: Contact Assay (percentage inhibition from fluorescence intensity). The format is biochemical. The protocol:
The percentage inhibition was calculated using the following equation:
[formula] where, Mean(BG) is the average value of the fluorescence intensity of the background wells and Mean(PC) is the average value of the fluorescence intensity of the positive control wells.
Table 4 provides the EC50 values of various compounds disclosed herein.
The EC50 is the concentration giving half of the maximal effect. Read a low EC50 as higher potency in that assay. As to `Nc1nccc2cc(CNC(=O)c3ccnc(Cc4ccc5ncc(Cl)cc5c4)c3)c(F)cc12` [Example 180, N-((1-amino-7-fluoroisoquinolin-6-yl)methyl)-2-((3-chloroquinolin-6-yl)methyl)isonicotinamide], the EC50 lay within 100 to 1000 nM.
The figure for `Cc1cc2c(N)nccc2cc1CNC(=O)c1ccnc(Cc2ccc3ncc(Cl)cc3c2)c1` [Example 181, N-((1-amino-7-methylisoquinolin-6-yl)methyl)-2-((3-chloroquinolin-6-yl)methyl)isonicotinamide] is ≤ 100 nM.
The figure for `Nc1nccc2cc(CNC(=O)c3ccnc(Cc4ccc5ncc(C(F)(F)F)cc5c4)c3)c(F)cc12` [Example 182, N-((1-amino-7-fluoroisoquinolin-6-yl)methyl)-2-((3-(trifluoromethyl)quinolin-6-yl)methyl)isonicotinamide] is 100 to 1000 nM; for `Cc1cc2c(N)nccc2cc1CNC(=O)c1ccnc(Cc2ccc3ncc(C(F)(F)F)cc3c2)c1` [Example 183, N-((1-amino-7-methylisoquinolin-6-yl)methyl)-2-((3-(trifluoromethyl)quinolin-6-yl)methyl)isonicotinamide] it is ≤ 100 nM; for `Cc1c(CNC(=O)c2ccnc(Cc3ccc4ncc(C(F)(F)F)cc4c3)c2)ccc2c(N)nccc12` [Example 184, N-((1-amino-5-methylisoquinolin-6-yl)methyl)-2-((3-(trifluoromethyl)quinolin-6-yl)methyl)isonicotinamide] it is ≤ 100 nM.
For `Nc1nc(C(F)(F)F)n2cc(CNC(=O)c3ccnc(Cc4ccc5ncc(Cl)cc5c4)c3)ccc12` [Example 186, N-((1-amino-3-(trifluoromethyl)imidazo[1,5-a]pyridin-6-yl)methyl)-2-((3-chloroquinolin-6-yl)methyl)isonicotinamide], the EC50 was ≤ 100 nM.
The figure for `Cc1cc(N)nc(C)c1CNC(=O)c1ccnc(Cc2cnc3ncc(Cl)cc3c2)c1` [Example 204, N-((6-amino-2,4-dimethylpyridin-3-yl)methyl)-2-((6-chloro-1,8-naphthyridin-3-yl)methyl)isonicotinamide] is ≤ 100 nM.
For the compound `Cc1cc(N)nc(C)c1CNC(=O)c1cc(Cc2ccc3ncc(Cl)cc3c2)nc(C(N)=O)c1` [Example 208, N^4-((6-amino-2,4-dimethylpyridin-3-yl)methyl)-6-((3-chloroquinolin-6-yl)methyl)pyridine-2,4-dicarboxamide], the EC50 was ≤ 100 nM.
Next, `Cc1cc(N)nc(C)c1CNC(=O)c1cc(Cc2ccc3ncc(Cl)cc3c2)nc(C(C)(C)O)c1` [Example 210, N-((6-amino-2,4-dimethylpyridin-3-yl)methyl)-2-((3-chloroquinolin-6-yl)methyl)-6-(2-hydroxypropan-2-yl)isonicotinamide]: ≤ 100 nM.
For `Cc1cc(N)nc(C)c1CNC(=O)c1cc(CN)nc(Cc2ccc3ncc(Cl)cc3c2)c1` [Example 211, N-((6-amino-2,4-dimethylpyridin-3-yl)methyl)-2-(aminomethyl)-6-((3-chloroquinolin-6-yl)methyl)isonicotinamide], the EC50 was ≤ 100 nM.
Next, `Cc1cc(N)nc(C)c1CNC(=O)c1cc(CO)nc(Cc2ccc3ncc(Cl)cc3c2)c1` [Example 212, N-((6-amino-2,4-dimethylpyridin-3-yl)methyl)-2-((3-chloroquinolin-6-yl)methyl)-6-(hydroxymethyl)isonicotinamide]: ≤ 100 nM; `Cc1cc(N)nc(C)c1CNC(=O)c1cc(CC#N)nc(Cc2ccc3ncc(Cl)cc3c2)c1` [Example 213, N-((6-amino-2,4-dimethylpyridin-3-yl)methyl)-2-((3-chloroquinolin-6-yl)methyl)-6-(cyanomethyl)isonicotinamide]: ≤ 100 nM.
With `Cc1cc(N)nc(C)c1CNC(=O)c1cc(CC(N)=O)nc(Cc2ccc3ncc(Cl)cc3c2)c1` [Example 214, N-((6-amino-2,4-dimethylpyridin-3-yl)methyl)-2-(2-amino-2-oxoethyl)-6-((3-chloroquinolin-6-yl)methyl)isonicotinamide], the 50% effective concentration (EC50) is ≤ 100 nM.
Next, `Cc1cc(N)nc(C)c1CNC(=O)c1ccnc(Cc2cc3cc(C(F)(F)F)cnc3[nH]2)c1` [Example 215, N-((6-amino-2,4-dimethylpyridin-3-yl)methyl)-2-((5-(trifluoromethyl)-1H-pyrrolo[2,3-b]pyridin-2-yl)methyl)isonicotinamide]: 100 to 1000 nM; `Cc1cc(N)nc(C)c1CNC(=O)c1ccnc(Cc2cc(N)c3ncc(Cl)cc3c2)c1` [Example 217, N-((6-amino-2,4-dimethylpyridin-3-yl)methyl)-2-((8-amino-3-chloroquinolin-6-yl)methyl)isonicotinamide]: ≤ 100 nM; `Cc1cc(N)nc(C)c1CNC(=O)c1ccnc(Cc2cc(C(C)(C)O)c3ncc(Cl)cc3c2)c1` [Example 219, N-((6-amino-2,4-dimethylpyridin-3-yl)methyl)-2-((3-chloro-8-(2-hydroxypropan-2-yl)quinolin-6-yl)methyl)isonicotinamide]: ≤ 100 nM.
Take `Cc1nc(N)ccc1CNC(=O)c1ccnc(Cc2cc(C(C)(C)O)c3ncc(Cl)cc3c2)c1` [Example 220, N-((6-amino-2-methylpyridin-3-yl)methyl)-2-((3-chloro-8-(2-hydroxypropan-2-yl)quinolin-6-yl)methyl)isonicotinamide]: the EC50 was ≤ 100 nM.
The compound `CC(C)(O)c1cc(Cc2cc(C(=O)NCc3cc4c(Cl)c[nH]c4cc3F)ccn2)cc2cc(Cl)cnc12` [Example 221, N-((3-chloro-6-fluoro-1H-indol-5-yl)methyl)-2-((3-chloro-8-(2-hydroxypropan-2-yl)quinolin-6-yl)methyl)isonicotinamide] gave an EC50 of 100 to 1000 nM.
The compound `CC(C)(O)c1cc(Cc2cc(C(=O)NCc3ccc4[nH]cc(Cl)c4c3F)ccn2)cc2cc(Cl)cnc12` [Example 222, N-((3-chloro-4-fluoro-1H-indol-5-yl)methyl)-2-((3-chloro-8-(2-hydroxypropan-2-yl)quinolin-6-yl)methyl)isonicotinamide] showed an EC50 of 100 to 1000 nM.
Next, `CC(C)(O)c1cc(Cc2cc(C(=O)NCc3cnc4[nH]cc(Cl)c4c3)ccn2)cc2cc(Cl)cnc12` [Example 223, N-((3-chloro-1H-pyrrolo[2,3-b]pyridin-5-yl)methyl)-2-((3-chloro-8-(2-hydroxypropan-2-yl)quinolin-6-yl)methyl)isonicotinamide]: ≤ 100 nM; `CC(C)(O)c1cc(Cc2cc(C(=O)NCc3ccc4c(N)nccc4c3)ccn2)cc2cc(Cl)cnc12` [Example 224, N-((1-aminoisoquinolin-6-yl)methyl)-2-((3-chloro-8-(2-hydroxypropan-2-yl)quinolin-6-yl)methyl)isonicotinamide]: ≤ 100 nM.
Next, `CC(C)(O)c1cc(Cc2cc(C(=O)NCc3n[nH]c4ccc(Cl)cc34)ccn2)cc2cc(Cl)cnc12` [Example 225, N-((5-chloro-1H-indazol-3-yl)methyl)-2-((3-chloro-8-(2-hydroxypropan-2-yl)quinolin-6-yl)methyl)isonicotinamide]: 100 to 1000 nM; `Cc1cc(N)nc(C)c1CNC(=O)c1ccnc(Cc2cnc3cc(F)c(Cl)cc3c2)c1` [Example 226, N-((6-amino-2,4-dimethylpyridin-3-yl)methyl)-2-((6-chloro-7-fluoroquinolin-3-yl)methyl)isonicotinamide]: ≤ 100 nM.
